We go through 3 compounds from patent US6710049B2, “Azole compounds as anti-fungal agents” (Ranbaxy Laboratories Limited, priority 2000, dated 2004).

In experiment [1] the target is lanosterol 14α-de-methylase. The following applies: the target enzyme in the fungus; cited from earlier work.
A further experiment deals with Aspergillus species. The following applies: isolates of Aspergillus species; cited from earlier work.
The test system of another experiment is Aspergillus fumigatous. Kind of experiment: In vivo anti-fungal activity, ED50 in systemically infected mice. More on the design: species or system Swiss albino mice. The following applies: mice infected i.v. with Aspergillus fumigatous, dosing for five days. How it is done:
The in-vivo evaluation of the compound can be carried out at a series of dose levels by oral or I. V. injection to mice which are inoculated I.V. with the minimum lethal dose of Candida albicans, Cryptococcus neoformans or Aspergillus fumigatus by the tail vein. Activity is based on the survival of a treated group of mice after the death of an untreated group of mice. For Aspergillus and Cryptococcus infections, target organs were cultured after treatment to document the number of mice cured of the infection for further assessment of activity.
Method: Briefly, Swiss albino mice weighing 20±2 G were injected intravenously (tail vein) with sufficient fungal cells to kill 100% of the untreated animals for Aspergillus fumigatous strain used. In all cases each group comprised of six mice. Five does levels, utilizing doubling dilution range, were employed per determination ranging from 25 to 1.56 mg/kg BW. Dosing was carried out for five days starting after 30 minutes of infection. […] Treated animals were monitored twice daily for 14 days post infection at which time the experiment was terminated and ED50 was calculated.

Converted amounts (≈) assume the structure as drawn.

As a reminder, the IC50 is the concentration that gives 50% inhibition. As to `OC(Cn1cncn1)(Cn1cncn1)c1ccc(F)cc1F` [Fluconazole], the IC50 in experiment [1] was 4.8 µM. Moreover, in the experiment on Aspergillus species, the “minimum inhibitory concentration (MIC) values” was 400 µg/mL (≈ 1310 µM).

Turning to `CCC(C)n1ncn(-c2ccc(N3CCN(c4ccc(OCC5COC(Cn6cncn6)(c6ccc(Cl)cc6Cl)O5)cc4)CC3)cc2)c1=O` (stereo not drawn) [Itraconazole], the results for the ED50 with Aspergillus fumigatous (Day 7 post infection) and in the experiment on Aspergillus fumigatous (Day 14 post infection) were 8.84 mg/kg body weight and 21.02 mg/kg body weight, respectively.

Regarding `C[C@@H](n1ncn(-c2ccc(OCC(F)(F)C(F)F)cc2)c1=O)[C@](O)(Cn1cncn1)c1ccc(F)cc1F` [TAK 187, 2-[(1R,2R)-2-(2,4-difluorophenyl)-2-hydroxy-1-methyl-3-(1H-1,2,4-triazol-1-yl)propyl]-4-(2′,2′,3′,3′-tetraflouropropoxyphenyl)-3(2H,4H)-1,2,4-triazolone], the ED50 is recorded as 10.08 mg/kg body weight in the experiment with Aspergillus fumigatous (Day 7 post infection) and 20.39 mg/kg body weight in the experiment with Aspergillus fumigatous (Day 14 post infection).
